Laboratory results: patent US9295732B2, “Conjugated TLR7 and/or TLR8 and TLR2 polycationic agonists” (CAYLA, priority 2013, dated 2016)

Key:
[1] = biological target: T1, human TLR7 (Homo sapiens, UniProt Q9NYK1); assay: HEK-Blue hTLR7 NF-κB/AP-1 SEAP reporter assay; type: cell-based; conditions: HEK-Blue hTLR7 cells, 10 μg/mL to 10 pg/ml, 24 hours, OD at 655 nm, FIG. 1
T1 construct: host or cells: HEK293 (HEK-Blue™ hTLR7)
T1 sequence (Q9NYK1 27-1049): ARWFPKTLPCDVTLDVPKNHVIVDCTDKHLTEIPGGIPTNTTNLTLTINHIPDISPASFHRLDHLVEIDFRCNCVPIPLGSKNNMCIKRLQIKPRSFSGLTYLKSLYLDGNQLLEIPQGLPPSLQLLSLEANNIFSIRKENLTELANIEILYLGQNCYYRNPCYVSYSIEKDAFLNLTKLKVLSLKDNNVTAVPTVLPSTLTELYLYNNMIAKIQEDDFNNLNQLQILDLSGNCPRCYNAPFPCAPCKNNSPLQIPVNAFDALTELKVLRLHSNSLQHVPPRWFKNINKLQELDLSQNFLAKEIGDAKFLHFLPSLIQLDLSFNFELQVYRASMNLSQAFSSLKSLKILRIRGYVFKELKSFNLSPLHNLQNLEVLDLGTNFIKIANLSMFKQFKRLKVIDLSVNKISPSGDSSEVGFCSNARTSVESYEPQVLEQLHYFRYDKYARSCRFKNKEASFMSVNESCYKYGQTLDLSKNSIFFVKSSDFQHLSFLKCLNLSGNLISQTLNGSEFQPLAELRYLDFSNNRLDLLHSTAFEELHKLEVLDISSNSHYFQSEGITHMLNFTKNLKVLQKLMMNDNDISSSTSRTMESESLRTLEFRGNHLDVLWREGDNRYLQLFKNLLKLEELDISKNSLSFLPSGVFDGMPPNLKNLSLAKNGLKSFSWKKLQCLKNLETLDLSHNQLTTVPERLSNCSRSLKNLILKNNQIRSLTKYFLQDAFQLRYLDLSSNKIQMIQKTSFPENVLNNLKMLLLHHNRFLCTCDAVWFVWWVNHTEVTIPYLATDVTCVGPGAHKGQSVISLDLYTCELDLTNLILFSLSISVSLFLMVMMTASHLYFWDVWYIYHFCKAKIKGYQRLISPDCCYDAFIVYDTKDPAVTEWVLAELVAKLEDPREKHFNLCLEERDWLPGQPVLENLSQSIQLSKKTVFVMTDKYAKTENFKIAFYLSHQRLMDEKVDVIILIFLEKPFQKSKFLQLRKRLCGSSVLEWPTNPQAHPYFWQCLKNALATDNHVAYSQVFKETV
How it was run: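 HEK293 cells stably expressing the given TLR, or RAW 264.7-derived cells (50,000 or 100,000 cells/well respectively), carry an NF-κB/AP-1-inducible SEAP reporter. Conjugated TLR7-TLR2 agonists at final 10 μg/mL to 10 pg/ml, 24 h at 37° C. SEAP read colorimetrically as OD at 655 nm in detection medium.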

[2] = test system: ISG54 promoter activity in B16-ISG54 reporter cells; assay: IFN response assay, B16-ISG54 luciferase reporter cells; type: cell-based, mouse; conditions: in complexes with pDNA 3:24 (w:w), overnight, FIG. 6B
Experimental: The effect of the pDNA:TLR7-TLR2 polyamine molecules complexes on inducing an interferon response was examined. pDNA:TLR7-TLR2 polyamine molecules mixtures (pDNA:TLR7-TLR2 polyamine molecules ratio 3:24, w:w) in serum-free medium or 5% glucose were prepared as described above and added to IFN reporter cells. Luciferase reporter cell lines were used to assay interferon response. A plasmid containing an interferon-inducible luciferase reporter gene was introduced into mouse RAW 264.7 macrophages and mouse B16 melanoma cells, giving rise to the RAW-ISG54 and B16-ISG54 reporter cell lines respectively. Expression of the luciferase reporter gene by the plasmid is under the control of an interferon-inducible promoter (I-ISG54) comprising five interferon-stimulated response elements (ISRE) and the minimal promoter of the human ISG-54K (Interferon Stimulation of a Gene encoding a 54 kDa protein) gene. The ISG-54K gene is induced by interferon regulatory factor 3 (IRF3), which has a key involvement in […] responses (Grandvaux et al. 2002) and the minimal promoter of the human ISG-54K gene contains two ISRE sites and fully inducible by type I interferons (IFN-α and IFN-β) and interferon regulatory factors (IRFs) (Wathelet et al. 1988; Grandvaux et al. 2002).
The RAW-ISG54 and B16-ISG54 reporter cell lines were seeded onto 96 well microtiter plates at 100,000 cells per well and 75,000 cells per well respectively. Cells were cultured in DMEM supplemented with 10% (v/v) heat inactivated fetal bovine serum (30 min at 56° C.), 4.5 g/I glucose, 2 mM L-glutamine, 50 U/ml penicillin, 50 μg/ml streptomycin, 100 μg/ml Normocin™ (InvivoGen) together with pDNA:TLR7-TLR2 polyamine complexes at 37° C. overnight. pDNA:TLR7-TLR2 polyamine molecules complexes were prepared as described above prior to adding to the IFN reporter cells. The induced luciferase expression was assessed in the reporter cell lines using a coelenterazine-base luminescence assay reagent, the Quanti-Luc™ (InvivoGen). Secreted luciferase activity was determined by bioluminescence quantification of the cell culture media using a microplate luminometer (FLUOstar OPTIMA from BMG Labtech).

Compound	ability to activate hTLR7 [1]	ability to induce an IFN response in B16-ISG54 reporter cells [2]
CCCCCCCCCCCCCCCC(=O)OCC(CSC[C@H](N)C(=O)N[C@@H](CCC(=O)NCCCNCCCCNCCCN)C(=O)Nc1ccc(Cn2c(O)nc3c(N)nc(NCCCC)nc32)cc1)OC(=O)CCCCCCCCCCCCCCC (stereo partly drawn) [CL527, (6R,9S)-6,25-diamino-9-(4-((6-amino-2-(butylamino)-8-hydroxy-9H-purin-9-yl)methyl)phenylcarbamoyl)-7,12-dioxo-4-thia-8,13,17,22-tetraazapentacosane-1,2-diyl dipalmitate]	activate hTLR7	induce an IFN response in B16-ISG54 reporter cells
CCCCCCCCCCCCCCCC(=O)OCC(CSC[C@H](N)C(=O)NCCCNCCCCNCCCNC(=O)CNC(=O)c1ccc(Cn2c(O)nc3c(N)nc(NCCCC)nc32)cc1)OC(=O)CCCCCCCCCCCCCCC (stereo partly drawn) [CL553, (20R)-20-amino-1-(4-((6-amino-2-(butylamino)-8-hydroxy-9H-purin-9-yl)methyl)phenyl)-1,4,19-trioxo-22-thia-2,5,9,14,18-pentaazapentacosane-24,25-diyl dipalmitate]	activate hTLR7	induce an IFN response in B16-ISG54 reporter cells
CCCCCCCCCCCCCCCC(=O)OCC(CSC[C@H](N)C(=O)N[C@@H](COC(=O)c1ccc(Cn2c(O)nc3c(N)nc(NCCCC)nc32)cc1)C(=O)NCCCNCCCCNCCCN)OC(=O)CCCCCCCCCCCCCCC (stereo partly drawn) [CL514, (6R,9S)-6,23-diamino-9-((4-((6-amino-2-(butylamino)-8-hydroxy-9H-purin-9-yl)methyl)benzoyloxy)methyl)-7,10-dioxo-4-thia-8,11,15,20-tetraazatricosane-1,2-diyl dipalmitate]	activate hTLR7	induce an IFN response in B16-ISG54 reporter cells
(6S,9S,12S,15S,18S,21R)-6,25-diamino-21-(4-((6-amino-2-(butylamino)-8-hydroxy-9H-purin-9-yl)methyl)phenylcarbamoyl)-12,15,18-tris(4-aminobutyl)-9-(hydroxyl methyl)-7,10,13,16,19-pentaoxo-4-thia-8,11,14,17,20-pentaazapentacosane-1,2-diyl dipalmitate [CL413]	activate hTLR7	induce an IFN response in B16-ISG54 reporter cells
CCCCCCCCCCCCCCCC(=O)N[C@@H](CSCC(COC(=O)CCCCCCCCCCCCCCC)OC(=O)CCCCCCCCCCCCCCC)C(=O)N[C@@H](CO)C(=O)N[C@@H](CCCCN)C(=O)N[C@@H](CCCCN)C(=O)N[C@@H](CCCCN)C(=O)N[C@@H](CCCCN)C(=O)Nc1ccc(Cn2c(O)nc3c(N)nc(NCCCC)nc32)cc1 (stereo partly drawn) [CL534, ((6R,9S,12S,15S,18S,21S)-25-amino-21-(4-((6-amino-2-(butylamino)-8-hydroxy-9H-purin-9-yl)methyl)phenylcarbamoyl)-12,15,18-tris(4-aminobutyl)-9-(hydroxylmethyl)-7,10,13,16,19-pentaoxo-6-palmitamido-4-thia-8,11,14,17,20-pentaazapentacosane-1,2-diyl dipalmitate]	activate hTLR7	–
